# Key:
# Enterococcus sp. = test: In vitro antibacterial evaluation: minimum inhibitory concentration (MIC), broth dilution method; type: cell-based
# Summary of the method: (§1)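 An MIC is reported for each organism as the least concentration giving inhibition, using broth dilution over 64-0.06 μg/mL with a 5×10^5 CFU/mL inoculum.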
# Escherichia coli = test: as above; type: cell-based
# Summary of the method: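 MIC read as lowest drug level preventing visible growth. Organisms at 5×10^5 CFU/mL were exposed to a 64-0.06 μg/mL dilution series in Muller-Hinton II […] following NCCLS broth dilution standard M7-A2.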
# Staphylococcus sp. = test: as above; type: cell-based; details: 18 hours at 35° C.
# Summary of the method: as §1
# Streptococcus sp. = test: as above; type: cell-based
# Summary of the method: as §1
# [1] = tested on: Staphylococcus aureus-SMITH (GC 4543); test: Acute lethal infection in mice (ED50); type: in vivo; details: female CD-1 mice, intraperitoneal challenge, intravenous dose 30 min. after infection, 7 day survival ratios
# Summary of the method: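 Female CD-1 mice (20 ± 1-2 g) were infected intraperitoneally with enough bacteria, suspended in Trypticase Soy Broth or hog gastric mucin, to kill untreated controls within 24-48 hr. Compound in saline or 5% dextrose was given intravenously 30 min after infection. ED50 came from pooled 7-day survival over 3 tests.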
# [2] = Anatomic pathology (heart and kidney histopathology) in mice; type: in vivo, CD-1 mice; details: 20 mg/kg intravenously daily for 9 days, microscopic histopathology on day 10
# Summary of the method: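 Juvenile CD-1 mice (20 days old; 5 vehicle, 5 treated) received glycopeptide antibiotic 20 mg/kg i.v. daily for 9 days. Necropsied tissues formalin-fixed, paraffin-embedded, H&E stained and examined microscopically; findings graded slight to severe versus controls.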
# [3] = broth dilution, inoculum 5×10^5 CFU/mL, 18 hours at 35° C.
compound,measurement,setting,value
CC(c1ccccc1)C1NC(=O)CNC(=O)C(CO)NC(=O)C(C(O)C2CN(Cc3ccc4ccccc4c3)C(=N)N2C2OC(CO)C(O)C(O)C2O)NC(=O)C(C(O)C2CNC(=N)N2)NC(=O)C(Cc2ccc(OC3OC(CO)C(OC4OC5COC6(OC5C(O)C4O)C4CC5CC(C4)CC6C5)C(O)C3O)cc2)NC1=O (centres unmarked) [Example 78],MIC Enterococcus faecalis (GC 2242),"Enterococcus sp.; Enterococcus faecalis (GC 2242), broth dilution, 18 hours at 35° C.",16 µg/mL
same,MIC Enterococcus faecalis (GC 2691),"Enterococcus sp.; Enterococcus faecalis (GC 2691), broth dilution, 18 hours at 35° C.",16 µg/mL
same,MIC Enterococcus faecalis (GC 3059),"Enterococcus sp.; Enterococcus faecalis (GC 3059), broth dilution, 18 hours at 35° C.",16 µg/mL
same,MIC Enterococcus faecalis (ATCC 29212),Enterococcus sp.; strain ATCC 29212,8 µg/mL
same,MIC Enterococcus faecalis (GC 2242),Enterococcus sp.; strain GC 2242,16 µg/mL
same,MIC Enterococcus faecium (GC 2243),Enterococcus sp.; strain GC 2243,8 µg/mL
same,MIC Enterococcus faecalis (GC 2691),Enterococcus sp.; strain GC 2691,16 µg/mL
same,MIC Enterococcus faecalis (GC 3059),Enterococcus sp.; strain GC 3059,16 µg/mL
same,MIC Enterococcus faecalis (GC 4552),Enterococcus sp.; strain GC 4552,8 µg/mL
same,MIC Enterococcus faecalis (GC 4553),Enterococcus sp.; strain GC 4553,8 µg/mL
same,MIC Enterococcus faecalis (GC 4554),Enterococcus sp.; strain GC 4554,16 µg/mL
same,MIC Enterococcus faecium (GC 4556),Enterococcus sp.; strain GC 4556,16 µg/mL
same,MIC Enterococcus faecium (GC 4557),Enterococcus sp.; strain GC 4557,2 µg/mL
same,MIC Enterococcus avium (GC 4558),Enterococcus sp.; strain GC 4558,4 µg/mL
same,MIC Enterococcus faecalis (GC 6189),Enterococcus sp.; strain GC 6189,16 µg/mL
same,MIC Escherichia coli (GC 4560),Escherichia coli; strain GC 4560,4 µg/mL
same,MIC Coagulase Negative Staphylococcus (GC 4547),Staphylococcus sp.; broth dilution,4 µg/mL
same,MIC Coagulase Negative Staphylococcus (GC 4548),Staphylococcus sp.; broth dilution,4 µg/mL
same,MIC Coagulase Negative Staphylococcus (GC 4549),Staphylococcus sp.; broth dilution,8 µg/mL
same,MIC Coagulase Negative Staphylococcus (GC 4551),Staphylococcus sp.; broth dilution,8 µg/mL
same,MIC Coagulase Negative Staphylococcus (GC 6257),Staphylococcus sp.; broth dilution,2 µg/mL
same,MIC Staphylococcus aureus (ATCC 29213),Staphylococcus sp.; broth dilution,8 µg/mL
same,MIC Staphylococcus aureus (GC 1131),Staphylococcus sp.; broth dilution,8 µg/mL
same,MIC Staphylococcus aureus (GC 3051),Staphylococcus sp.; broth dilution,8 µg/mL
same,MIC Staphylococcus aureus (GC 3053),Staphylococcus sp.; broth dilution,8 µg/mL
same,MIC Staphylococcus aureus (GC 4541),Staphylococcus sp.; broth dilution,4 µg/mL
same,MIC Staphylococcus aureus (GC 4542),Staphylococcus sp.; broth dilution,8 µg/mL
same,MIC Staphylococcus aureus (GC 4544),Staphylococcus sp.; broth dilution,8 µg/mL
same,MIC Staphylococcus aureus (GC 4545),Staphylococcus sp.; broth dilution,8 µg/mL
same,MIC Staphylococcus aureus SMITH (GC 4543),Staphylococcus sp.; broth dilution,4 µg/mL
same,MIC Staphylococcus haemolyticus (GC 4546),Staphylococcus sp.; broth dilution,4 µg/mL
same,MIC Staphylococcus aureus-SMITH (GC 4543),"Staphylococcus sp.; strain SMITH GC 4543, broth dilution",4 µg/mL
same,MIC Streptococcus agalactiae (GC 4564),"Streptococcus sp.; Streptococcus agalactiae (GC 4564), broth dilution, 18 hours at 35° C.",1 µg/mL
same,MIC Streptococcus pneumoniae (ATCC 6301),"Streptococcus sp.; Streptococcus pneumoniae (ATCC 6301), broth dilution, 18 hours at 35° C.",1 µg/mL
same,MIC Streptococcus pneumoniae (GC 1894),"Streptococcus sp.; Streptococcus pneumoniae (GC 1894), broth dilution, 18 hours at 35° C.",0.25 µg/mL
same,MIC Streptococcus pneumoniae (GC 4565),"Streptococcus sp.; Streptococcus pneumoniae (GC 4565), broth dilution, 18 hours at 35° C.",2 µg/mL
same,MIC Streptococcus pyogenes (GC 4563),"Streptococcus sp.; Streptococcus pyogenes (GC 4563), broth dilution, 18 hours at 35° C.",0.5 µg/mL
same,MIC Streptococcus pneumoniae (ATCC 6301),Streptococcus sp.; strain ATCC 6301,1 µg/mL
same,MIC Streptococcus pneumoniae (GC 1894),Streptococcus sp.; strain GC 1894,0.25 µg/mL
same,MIC Streptococcus pyogenes (GC 4563),Streptococcus sp.; strain GC 4563,0.5 µg/mL
same,MIC Streptococcus agalactiae (GC 4564),Streptococcus sp.; strain GC 4564,1 µg/mL
same,MIC Streptococcus pneumoniae (GC 4565),Streptococcus sp.; strain GC 4565,2 µg/mL
same,"median effective dose (ED50), Staphylococcus aureus-SMITH (GC 4543)",[1],2 mg/kg
same,"Anatomical Pathology (Day 10), Heart",[2],0
same,"Anatomical Pathology (Day 10), Kidney",[2],++
"COc1ccc2cc(COC3C(CO)OC(OC4C(CO)OC(Oc5ccc(CC6NC(=O)C(C(C)c7ccccc7)NC(=O)CNC(=O)C(CO)NC(=O)C(C(O)C7CNC(=N)N7C7OC(CO)C(O)C(O)C7O)NC(=O)C(C(O)C7CNC(=N)N7)NC6=O)cc5)C(O)C4O)C(O)C3O)ccc2c1 (stereo not drawn) [Example 230a, Cyclo[glycyl-β-methylphenylalanyl-O-[4-O-[4-O-[(6-methoxy-2-naphthyl)methyl]hexopyranosyl]hexopyranosyl]tyrosyl-3-(2-iminoimidazolidin-4-yl)seryl-3-(3-hexopyranosyl-2-iminoimidazolidin-4-yl)serylseryl]]",MIC Enterococcus avium (GC 4558),"Enterococcus sp.; Enterococcus avium (GC 4558), 18 hours at 35° C.",2 to 4 µg/mL
same,MIC Enterococcus faecalis (ATCC 29212),"Enterococcus sp.; Enterococcus faecalis (ATCC 29212), 18 hours at 35° C.",2 to 4 µg/mL
same,MIC Enterococcus faecalis (GC 2242),"Enterococcus sp.; Enterococcus faecalis (GC 2242), 18 hours at 35° C.",2 to 4 µg/mL
same,MIC Enterococcus faecalis (GC 2691),"Enterococcus sp.; Enterococcus faecalis (GC 2691), 18 hours at 35° C.",2 to 4 µg/mL
same,MIC Enterococcus faecalis (GC 3059),"Enterococcus sp.; Enterococcus faecalis (GC 3059), 18 hours at 35° C.",2 to 4 µg/mL
same,MIC Enterococcus faecalis (GC 4552),"Enterococcus sp.; Enterococcus faecalis (GC 4552), 18 hours at 35° C.",2 to 4 µg/mL
same,MIC Enterococcus faecalis (GC 4553),"Enterococcus sp.; Enterococcus faecalis (GC 4553), 18 hours at 35° C.",2 to 4 µg/mL
same,MIC Enterococcus faecalis (GC 4554),"Enterococcus sp.; Enterococcus faecalis (GC 4554), 18 hours at 35° C.",2 to 4 µg/mL
same,MIC Enterococcus faecalis (GC 6189),"Enterococcus sp.; Enterococcus faecalis (GC 6189), 18 hours at 35° C.",1 to 4 µg/mL
same,MIC Enterococcus faecium (GC 2243),"Enterococcus sp.; Enterococcus faecium (GC 2243), 18 hours at 35° C.",2 to 4 µg/mL
same,MIC Enterococcus faecium (GC 4556),"Enterococcus sp.; Enterococcus faecium (GC 4556), 18 hours at 35° C.",2 to 4 µg/mL
same,MIC Enterococcus faecium (GC 4557),"Enterococcus sp.; Enterococcus faecium (GC 4557), 18 hours at 35° C.",1 to 2 µg/mL
same,MIC Enterococcus avium (GC 4558),Enterococcus sp.; [3],2 to 4 µg/mL
same,MIC Enterococcus faecalis (ATCC 29212),Enterococcus sp.; [3],2 to 4 µg/mL
same,MIC Enterococcus faecalis (GC 2242),Enterococcus sp.; [3],2 to 4 µg/mL
same,MIC Enterococcus faecalis (GC 2691),Enterococcus sp.; [3],2 to 4 µg/mL
same,MIC Enterococcus faecalis (GC 3059),Enterococcus sp.; [3],2 to 4 µg/mL
same,MIC Enterococcus faecalis (GC 4552),Enterococcus sp.; [3],2 to 4 µg/mL
same,MIC Enterococcus faecalis (GC 4553),Enterococcus sp.; [3],2 to 4 µg/mL
same,MIC Enterococcus faecalis (GC 4554),Enterococcus sp.; [3],2 to 4 µg/mL
same,MIC Enterococcus faecalis (GC 6189),Enterococcus sp.; [3],1 to 4 µg/mL
same,MIC Enterococcus faecium (GC 2243),Enterococcus sp.; [3],2 to 4 µg/mL
same,MIC Enterococcus faecium (GC 4556),Enterococcus sp.; [3],2 to 4 µg/mL
same,MIC Enterococcus faecium (GC 4557),Enterococcus sp.; [3],1 to 2 µg/mL
same,MIC Escherichia coli (ATCC 25922),"Escherichia coli; Escherichia coli (ATCC 25922), 18 hours at 35° C.",32 µg/mL
same,MIC Escherichia coli (GC 4559),"Escherichia coli; Escherichia coli (GC 4559), 18 hours at 35° C.",32 µg/mL
same,MIC Coagulase Negative Staphylococcus (GC 4547),Staphylococcus sp.; Coagulase Negative Staphylococcus (GC 4547),0.5 to 2 µg/mL
same,MIC Staphylococcus aureus (ATCC 29213),Staphylococcus sp.; Staphylococcus aureus (ATCC 29213),1 to 2 µg/mL
same,MIC Staphylococcus aureus (GC 1131),Staphylococcus sp.; Staphylococcus aureus (GC 1131),0.5 to 2 µg/mL
same,MIC Staphylococcus aureus (GC 3051),Staphylococcus sp.; Staphylococcus aureus (GC 3051),1 to 2 µg/mL
same,MIC Staphylococcus aureus (GC 3053),Staphylococcus sp.; Staphylococcus aureus (GC 3053),1 to 2 µg/mL
same,MIC Staphylococcus aureus (GC 4541),Staphylococcus sp.; Staphylococcus aureus (GC 4541),0.5 to 2 µg/mL
same,MIC Staphylococcus aureus (GC 4544),Staphylococcus sp.; Staphylococcus aureus (GC 4544),1 to 2 µg/mL
same,MIC Staphylococcus aureus (GC 4545),Staphylococcus sp.; Staphylococcus aureus (GC 4545),0.5 to 1 µg/mL
same,MIC Staphylococcus aureus-SMITH (GC 4543),Staphylococcus sp.; Staphylococcus aureus-SMITH (GC 4543),0.5 to 2 µg/mL
same,MIC Streptococcus pneumoniae (ATCC 6301),"Streptococcus sp.; Streptococcus pneumoniae (ATCC 6301), 18 hours at 35° C.",<0.06 µg/mL
same,MIC Streptococcus pneumoniae (GC 1894),"Streptococcus sp.; Streptococcus pneumoniae (GC 1894), 18 hours at 35° C.",<0.06 µg/mL
same,MIC Streptococcus pneumoniae (GC 4565),"Streptococcus sp.; Streptococcus pneumoniae (GC 4565), 18 hours at 35° C.",<0.06 µg/mL
same,MIC Streptococcus pneumoniae (ATCC 6301),Streptococcus sp.; [3],<0.06 µg/mL
same,MIC Streptococcus pneumoniae (GC 1894),Streptococcus sp.; [3],<0.06 µg/mL
same,MIC Streptococcus pneumoniae (GC 4565),Streptococcus sp.; [3],<0.06 µg/mL
same,"median effective dose (ED50), Staphylococcus aureus-SMITH (GC 4543)",[1],0.06 mg/kg
same,"Anatomical Pathology (Day 10), Heart",[2],0
same,"Anatomical Pathology (Day 10), Kidney",[2],+

# Reference: patent US8247211B2, “Glycopeptide antibiotics” (American Cyanamid Company, priority 2001, dated 2012)
